Measurements: patent US8741948B2, “Oral antimicrobial pharmaceutical compositions” (Cosmo Technologies Ltd., priority 2004, dated 2014)

What was measured:
Assay in all cases: MIC evaluation on pathogenic bacterial strains
Format in all cases: cell-based
[1] = tested on: Enterobacter cloacae (ATCC 17446431)
From the text: (§1) In particular, the efficacy of rifamicin SV was verified by means of an evaluation of the MIC (Minimum Inhibiting Concentration) on specific pathogenic bacterial strains, such as, for example, Escherichia coli, […], Proteus vulgaris, Pseudomonas aeruginosa, Salmonella typhi and Enterobacter cloacae as shown in the following Table A.

[2] = tested on: Pseudomonas aeruginosa (ATCC 27853)
From the text: as §1

[3] = tested on: Enterobacter faecalis (ATCC 29212)
From the text: as §1

[4] = tested on: Escherichia coli (ATCC 30218)
From the text: as §1

[5] = tested on: Proteus vulgaris (ATCC 13315)
From the text: as §1

[6] = tested on: Salmonella typhi (ATCC 13331)
From the text: as §1

[7] = tested on: Staphylococcus aureus (ATCC 25213)
From the text: as §1

Substance: rifamicin SV
- MIC (Minimum Inhibiting Concentration) [1]: >400 µg/mL
- MIC (Minimum Inhibiting Concentration) [2]: >400 µg/mL
- MIC (Minimum Inhibiting Concentration) [3]: 25 µg/mL
- MIC (Minimum Inhibiting Concentration) [4]: 400 µg/mL
- MIC (Minimum Inhibiting Concentration) [5]: 400 µg/mL
- MIC (Minimum Inhibiting Concentration) [6]: >400 µg/mL
- MIC (Minimum Inhibiting Concentration) [7]: <0.4 µg/mL
